“And” between values parts separate entries of the source, which are not always exact repeats. Equal entries are not always repeated. Where two headings read alike, the source gives them in different places.
What was measured:
BxPC3 = test: Cell survival assay (SRB), BxPC3; format: cell-based; settings: Homo sapiens, BXPC-3, 72 h
Procedure: (§1) 2.2. Cell Survival Assay: Standard Pharmacological Test Procedure. […] Compounds are incubated with cells for 3 days.

DLD-1 = test: Cell survival assay (SRB), DLD-1; format: cell-based; settings: Homo sapiens, DLD-1, 72 h, 3 days
Text: Cells lines with previously known mechanisms of resistance. […] Res. 8: 207-218,1996); KB-3-1 (parental derived from an epidermoid carcinoma), KB-8.5, KB-V1 (Akiyama S-I, Fojo A, Hanover J A, Pastan I, Gottesman M M. Isolation and genetic characterization of human KB cell lines resistant to multiple drugs. Somatic Cell Mol. Gen., 11: 117-126,1985; Shen D-W, Cardarelli C, Hwang J, Cornwell M, Richert N, Ishii S, Pastan I, Gottesman MM. […] J. Biol. Chem., 261: 7762-7770, 1986); and HL-60 (parental derived from human leukemia) and HL60/AR (McGrath T., Center M. S. Adriamycin resistance in HL60 cells in the absence of detectable P-glycoprotein. Biochem. Res. Commun., 145:1171-1176,1987); A549 and A549.EpoB40 (He L., Yang C.-P.H., Horwitz S. B. Mutations in p-tubulin map to domains involved in regulation of microtubule stability in epothilone-resistant cell lines. Molecular Cancer Therapeutics. 1: 3-10, 2001). HCT-15 human colon carcinoma and DLD-1 human colon carcinoma are obtained from American Tissue Culture Collection. The MX-1W carcinoma is a Wyeth variant orginally obtained as MX-1 breast carcinoma from the National Cancer Institute. Cell lines selected for resistance to Representative Example 129. KB-3-1 cells are selected for resistance to Example 129 by chronically exposing cells to increasing concentrations of Example 129.
2.2. Cell Survival Assay: Standard Pharmacological Test Procedure. The concentration of candidate inhibitor required to inhibit 50% of cell growth (IC50) is done according to previously reported methods. […] Compounds are serially diluted into media as 2× stocks and 100 μl added to cells in duplicate. Compounds are incubated with cells for 3 days. At the end of the incubation period the sulforhodamine B (SRB) assay, which measures protein content as an assessment of cell survival, is performed as described previously (Skehan P, Storeng R, Scudiero D, Monks A, McMahon J, Vistica D, Warren J T, Bokesch H, Kenney S, Boyd MR. New calorimetric cytotoxicity assay for anticancer-drug screening. J Natl Cancer Inst 1990 Jul 4;82(13):1107-12) with some modification as follows. For KB-3-1 cells with 20% FCS, media is gently decanted and replaced with 200 μl of serum-free media mixed with cold 50% TCA for a final concentration of 10% TCA. The plates are incubated for 1 hr at 4° C., followed by washing 5 times in cold distilled water, then air dried overnight. The fixed cells are stained for 10 min with 80 μl of 0.04% SRB solution prepared in 1% glacial acetic acid. Stain is discarded and plates washed 5 times in 1% glacial acetic acid, then air-dried until completely dry. Stained cell product is dissolved in 150 μl of 10 mM Trizma Base and placed on a shaker for 20 minutes until fully dissolved. Absorbance is read on a Victor V multi-label plate reader (Perkin Elmer, Gaithersburg, Md.).

HCT-116 = test: Cell survival assay (SRB), HCT-116; format: cell-based; settings: Homo sapiens
Procedure: as §1

SK-Mel-2 = test: Cell survival assay (SRB), SK-Mel-2; format: cell-based; settings: Homo sapiens
Procedure: as §1

KB-3-1 = test: Cell survival assay (SRB), KB-3-1; format: cell-based, human
Outline: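 IC50 for 50% growth inhibition after 3-day compound exposure, tested in duplicate. SRB protein staining of TCA-fixed cells (10% TCA, 1 hr, 4 °C), solubilised in Tris base and read by absorbance, was used as the survival read-out, with KB-3-1 grown in 20% FCS.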

U87 = test: Cell survival assay (SRB), U87; format: cell-based; settings: Homo sapiens, U-87 MG, 72 h
Procedure: as §1

Colo205 = test: Cell survival assay (SRB), Colo205; format: cell-based; settings: Homo sapiens, COLO 205, 72 h
Procedure: as §1

KB-HTI-4.0 = test: Cell survival assay, KB-3-1 line made resistant to Example 129 (KB-HTI-4.0); format: cell-based, human; settings: for IC50: Homo sapiens
SKOV3 = test: Cell survival assay (SRB), SKOV3; format: cell-based; settings: Homo sapiens, SK-OV-3, 72 h
Procedure: as §1

KB-8-5 (MDR1+) = test: Cell survival assay (SRB), KB-8-5 (MDR1+); settings: for IC50: Homo sapiens
PC3MM2 = test: Cell survival assay (SRB), PC3MM2; format: cell-based; settings: Homo sapiens
Procedure: as §1

A431 = test: Cell survival assay (SRB), A431; format: cell-based; settings: Homo sapiens, A-431, 72 h
Procedure: as §1

KB-PTX-15+099 = test: Cell survival assay, KB-PTX-15+099 (paclitaxel-resistant, non-MDR); format: cell-based, human; settings: for IC50: Homo sapiens
CCRF-CEM = test: Cell survival assay (MTS), CCRF-CEM; format: cell-based; settings: Homo sapiens, 72 h
Procedure: as §1

## CC(=O)O[C@H]1C(=O)[C@@]2(C)[C@H]([C@H](OC(=O)c3ccccc3)[C@]3(O)C[C@H](OC(=O)[C@H](O)[C@@H](NC(=O)c4ccccc4)c4ccccc4)C(C)=C1C3(C)C)[C@]1(OC(C)=O)CO[C@@H]1C[C@@H]2O [paclitaxel, reference compound]
BxPC3; BxPC3, pancreatic, 3 days, SRB staining, read-out: IC50
  IC50: 10.8 nM
DLD-1; DLD-1, colon, SRB staining, read-out: IC50
  IC50: 30.8 ± 12.7 nM
DLD-1; DLD-1, SRB, + 5.0 uM MDR-1 inhibitor (heptanenitrile of Table 2), read-out: IC50 + 5.0 uM MDR-1 inhibitor
  IC50: 3.8 nM
DLD-1; DLD-1, SRB, vehicle control (DMSO), no MDR-1 inhibitor, read-out: IC50
  IC50: 21.8 nM
HCT-116; 72 h, HCT-116, colon, 3 days, SRB staining, read-out: IC50
  IC50: 4.5 nM
SK-Mel-2; 72 h, SK-Mel-2, melanoma, 3 days, SRB staining, read-out: IC50
  IC50: 3.2 ± 1.8 nM
KB-3-1; Homo sapiens, KB 3-1, 72 h, KB-3-1, epidermoid, 3 days, SRB staining, read-out: IC50
  IC50: 3.9 ± 1.8 nM
KB-3-1; Homo sapiens, KB 3-1, 72 h, KB-3-1, 3 days, SRB, + 5.0 uM MDR-1 inhibitor (heptanenitrile), mean of two experiments, read-out: IC50 + 5.0 uM MDR-1 inhibitor
  IC50: 2.1 nM
KB-3-1; Homo sapiens, KB 3-1, 72 h, KB-3-1, 3 days, SRB, vehicle (DMSO), no MDR-1 inhibitor, mean of two experiments, read-out: IC50
  IC50: 2.2 nM
KB-3-1; Homo sapiens, KB 3-1, 72 h, amount of drug needed to kill 50% of cells after three days continuous exposure, Table 11, read-out: IC50 in parental cell line KB-3-1
  IC50: 3.9 nM
KB-3-1; Homo sapiens, KB 3-1, KB-3-1, Table 6, read-out: KB-3-1 IC50
  IC50: 2.74 ± 0.39 nM
KB-3-1; Homo sapiens, KB 3-1, KB-3-1 parental, Table 3, read-out: KB-3-1 IC50, nM (N)
  IC50: 3.9 ± 1.8 nM
KB-3-1; Homo sapiens, KB 3-1, KB-3-1 parental, Table 8, read-out: KB-3-1 IC50
  IC50: 2.66 ± 0.92 nM
U87; U87, glioblastoma, 3 days, SRB staining, read-out: IC50
  IC50: 25.1 nM
Colo205; Colo205, colon, 3 days, SRB staining, read-out: IC50
  IC50: 6.9 ± 2.3 nM
KB-HTI-4.0; KB-3-1 line made resistant to Example 129, Table 8, read-out: KB-HTI-4.0 IC50
  IC50: 3.18 ± 0.62 nM
SKOV3; SKOV3, ovarian, 3 days, SRB staining, read-out: IC50
  IC50: 9 nM
KB-8-5 (MDR1+); MDR1, 72 h, KB-85, 3 days, SRB, vehicle (DMSO), no MDR-1 inhibitor, mean of two experiments
  IC50: 41.9 nM
KB-8-5 (MDR1+); MDR1, 72 h, read-out: IC50 + 5.0 uM MDR-1 inhibitor, KB-85, 3 days, SRB, + 5.0 uM MDR-1 inhibitor (heptanenitrile), mean of two experiments
  IC50: 4.4 nM
KB-8-5 (MDR1+); MDR1, read-out: KB-8-5 (MDR1+) IC50, nM (N), KB-8-5, moderate MDR1 expression, Table 3
  IC50: 63.3 ± 29 nM
KB-8-5 (MDR1+); KB-8-5 (KB-85) vs KB-3-1, in vitro
  resistance of KB-8-5 cells: 19 fold and 14 fold
PC3MM2; 72 h, PC3MM2, prostate, 3 days, SRB staining, read-out: IC50
  IC50: 8.7 nM
A431; A431, squamous, 3 days, SRB staining, read-out: IC50
  IC50: 7.6 nM
KB-PTX-15+099; KB-PTX-15+099, Table 6, read-out: KB-PTX-15+099 IC50
  IC50: 57.8 ± 9.6 nM
KB-PTX-15+099; vs KB-3-1
  resistance of KB-PTX-15+099 cells: 21 fold
CCRF-CEM; leukemia, 3 days, MTS assay, read-out: IC50
  IC50: 3.3 ± 1.3 nM

## CN[C@H](C(=O)N[C@H](C(=O)N(C)[C@H](/C=C(\C)C(=O)O)C(C)C)C(C)(C)C)C(C)(C)c1ccccc1 [Example 129, N,β,β-trimethyl-L-phenylalanyl-N^1-[(1S,2E)-3-carboxy-1-isopropylbut-2-enyl]-N^1,3-dimethyl-L-valinamide]
BxPC3
  IC50: 0.7 nM
DLD-1; DLD-1, colon, SRB staining
  IC50: 1.1 ± 0.4 nM
DLD-1; DLD-1, SRB, vehicle control (DMSO), no MDR-1 inhibitor
  IC50: 1.2 nM
DLD-1; read-out: IC50 + 5.0 uM MDR-1 inhibitor, DLD-1, SRB, + 5.0 uM MDR-1 inhibitor (heptanenitrile of Table 2)
  IC50: 1.1 nM
HCT-116; HCT-116, 72 h
  IC50: 0.7 ± 0.2 nM
SK-Mel-2; SK-MEL-2, 72 h
  IC50: 1.7 ± 0.5 nM
KB-3-1
  IC50: 1.2 nM
KB-3-1; Homo sapiens, KB 3-1
  IC50: ~1 nM
KB-3-1; Homo sapiens, KB 3-1, 72 h
  IC50: 0.96 nM
KB-3-1; Homo sapiens, KB 3-1, 72 h, read-out: IC50 + 5.0 uM MDR-1 inhibitor
  IC50: 0.9 nM
KB-3-1; Homo sapiens, KB 3-1, 72 h, read-out: IC50 in parental cell line KB-3-1
  IC50: 1 nM
KB-3-1; Homo sapiens, KB 3-1, read-out: KB-3-1 IC50 (nM)
  IC50: 0.612 ± 0.023 nM
KB-3-1; Homo sapiens, KB 3-1, read-out: KB-3-1 IC50, nM
  IC50: 0.53 ± 0.05 nM
KB-3-1; Homo sapiens, KB 3-1, read-out: KB-3-1 IC50, nM (N)
  IC50: 0.96 nM
U87
  IC50: 2.4 ± 0.3 nM
Colo205
  IC50: 1.5 ± 0.6 nM
KB-HTI-4.0
  (RR) relative resistance vs. parental cells: (12)
  resistance of KB-3-1-derived cell lines selected with Example 129: approximately 12 fold
KB-HTI-4.0; KB 3-1, read-out: KB-HTI-4.0 IC50, nM
  IC50: 6.5 ± 1.6 nM
SKOV3
  IC50: 1.7 nM
KB-8-5 (MDR1+)
  RR, relative resistance: 2.4
  Ratio KB85/KB: 2.4
  resistance of KB-8-5 cells: 2.4-5 fold
KB-8-5 (MDR1+); MDR1, 72 h
  IC50: 1.9 nM
KB-8-5 (MDR1+); MDR1, 72 h, read-out: IC50 + 5.0 uM MDR-1 inhibitor
  IC50: 1.4 nM
KB-8-5 (MDR1+); MDR1, read-out: KB-8-5 (MDR1+) IC50, nM (N)
  IC50: 2.3 nM
PC3MM2; PC3MM2, 72 h
  IC50: 1.9 ± 0.1 nM
A431
  IC50: 2.4 ± 0.4 nM
KB-PTX-15+099; read-out: KB-PTX-15+099 IC50 (nM)
  IC50: 0.182 ± 0.028 nM
KB-PTX-15+099; IC50 KB-PTX-15+099 / IC50 KB-3-1, less than 1 = increased sensitivity
  Average Relative Resistance (RR): (0.30)
KB-PTX-15+099; vs KB-3-1
  increased sensitivity of KB-PTX-15+099 cells: 3.4 fold
CCRF-CEM
  IC50: 0.2 ± 0.03 nM

Source: US20040121965A1, “Method of treating resistant tumors” (Wyeth Holdings Corporation, priority 2002, published 2004)
